Measured values: BindingDB's records for doi:10.1016/j.bmcl.2005.05.127 (Wyeth Research, 2005)

Experiments:
[1] = Inhibitory concentration against human p21 deficient cell (p21-/-) proliferation
[2] = Inhibitory concentration against human p21 proficient cell (p21+/+) proliferation
[3] = Inhibitory concentration against human p21 […] cell (p21+/+) proliferation

IC50 [1] | IC50 [2] | SMILES | IC50 [3]
> 20 µM | > 20 µM | COc1ccc(-c2nc3sc4c(c3c(=O)[nH]2)CCCC4)cc1OC | –
– | – | O=C(c1cccs1)c1cnn2c(-c3cccc(NC(=O)C4CC4)c3)ccnc12 | 12 µM
– | – | COc1cc(-c2nc3sc4c(c3c(=O)[nH]2)CCCC4)cc(OC)c1OC | > 20 µM
